According to US8604054B2, “Triglyceride-lowering agent and hyperinsulinism-ameliorating agent” (Kowa Co., Ltd., priority 2006, dated 2013):

How the values were obtained:
[1] = fructose-loaded rats, oral once a day for 21 days, pitavastatin 10 mg/kg, amlodipine 15 mg/kg; for plasma triglyceride level compared with the control group (FIG. 1): Dunnett's test, combination p<0.01
[2] = fructose-loaded rats, oral once a day for 21 days, pitavastatin 10 mg/kg, amlodipine 15 mg/kg; for plasma insulin level compared with the control group (FIG. 2): Dunnett's test, combination p<0.05
[3] = blood 22 hours after final administration

CCOC(=O)C1=C(COCCN)NC(C)=C(C(=O)OC)C1c1ccccc1Cl (stereo not drawn) [amlodipine, amlodipine besylate]
plasma triglyceride level compared with the control group (FIG. 1) [1]: almost equivalent to those of the control group | plasma insulin level compared with the control group (FIG. 2) [2]: not significantly changed as compared with the control group

O=C([O-])C[C@H](O)C[C@H](O)/C=C/c1c(C2CC2)nc2ccccc2c1-c1ccc(F)cc1.O=C([O-])C[C@H](O)C[C@H](O)/C=C/c1c(C2CC2)nc2ccccc2c1-c1ccc(F)cc1.[Ca+2] [pitavastatin, Pitavastatin calcium]
plasma triglyceride level compared with the control group (FIG. 1) [1]: almost equivalent to those of the control group | relative plasma triglyceride level (based on the control group) [1, 3]: 0.966 | plasma insulin level compared with the control group (FIG. 2) [2]: not significantly changed as compared with the control group | relative plasma insulin level (based on the control group) [2, 3]: 0.971
